Measurements taken from PubChem BioAssay AID256 (DTP/NCI, 2004).
“And” between values parts separate entries of the source, which are not always exact repeats. Equal entries are not always repeated. Inconclusive results and toxic doses are left out.

System: CD2F1 mice, L1210 leukemia ip, survival T/C
Assay: NCI In Vivo Anticancer Drug Screen. Data for tumor model L1210 Leukemia (intraperitoneal) in CD2F1 (CDF1) mice
Details: higher = longer survival
In short: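 Antitumor effect is scored in animals hosting a serially transplanted tumor. Values compare compound-dosed animals against vehicle-only controls as a simple quotient.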

[1] = endpoint: mean survival time, dose: 100.0 mg/kg/injection, schedule: Q01DX009 (ip), vehicle: saline
[2] = endpoint: mean survival time, dose: 100.0 mg/kg/injection, schedule: Q04DX003 (ip), vehicle: saline sonified
[3] = endpoint: mean survival time, dose: 200.0 mg/kg/injection, schedule: Q01DX009 (ip), vehicle: saline
[4] = endpoint: mean survival time, dose: 200.0 mg/kg/injection, schedule: Q04DX003 (ip), vehicle: saline sonified
[5] = endpoint: mean survival time, dose: 400.0 mg/kg/injection, schedule: Q01DX009 (ip), vehicle: saline
[6] = endpoint: mean survival time, dose: 100.0 mg/kg/injection, schedule: Q01DX001 (ip), vehicle: saline with Tween-80
[7] = endpoint: mean survival time, dose: 100.0 mg/kg/injection, schedule: Q01DX009 (ip), vehicle: saline with Tween-80
[8] = endpoint: mean survival time, dose: 200.0 mg/kg/injection, schedule: Q01DX001 (ip), vehicle: saline with Tween-80
[9] = endpoint: mean survival time, dose: 200.0 mg/kg/injection, schedule: Q01DX009 (ip), vehicle: saline with Tween-80
[10] = endpoint: mean survival time, dose: 400.0 mg/kg/injection, schedule: Q01DX001 (ip), vehicle: saline with Tween-80
[11] = endpoint: mean survival time, dose: 400.0 mg/kg/injection, schedule: Q01DX009 (ip), vehicle: saline with Tween-80
[12] = endpoint: mean survival time, dose: 100.0 mg/kg/injection, schedule: Q04DX003 (ip), vehicle: saline with Tween-80
[13] = endpoint: mean survival time, dose: 200.0 mg/kg/injection, schedule: Q04DX003 (ip), vehicle: saline with Tween-80
[14] = endpoint: mean survival time, dose: 400.0 mg/kg/injection, schedule: Q04DX003 (ip), vehicle: saline with Tween-80
[15] = endpoint: mean survival time, dose: 6.25 mg/kg/injection, schedule: Q01DX009 (ip), vehicle: saline with Tween-80
[16] = endpoint: mean survival time, dose: 12.5 mg/kg/injection, schedule: Q01DX009 (ip), vehicle: saline with Tween-80
[17] = endpoint: mean survival time, dose: 100.0 mg/kg/injection, schedule: Q04DX002 (ip), vehicle: saline with Tween-80

## Cc1ccc(S(=O)(=O)NCCN(CCNS(=O)(=O)c2ccc(C)cc2)S(=O)(=O)c2ccc(C)cc2)cc1
endpoint: mean survival time, dose: 12.5 mg/kg/injection, schedule: Q01DX009 (ip), vehicle: other
  T/C: 88 % of control
endpoint: mean survival time, dose: 25.0 mg/kg/injection, schedule: Q01DX009 (ip), vehicle: other
  T/C: 86 % of control
endpoint: mean survival time, dose: 50.0 mg/kg/injection, schedule: Q01DX009 (ip), vehicle: other
  T/C: 86 % of control
endpoint: mean survival time, dose: 100.0 mg/kg/injection, schedule: Q01DX009 (ip), vehicle: other
  T/C: 92 % of control
endpoint: mean survival time, dose: 200.0 mg/kg/injection, schedule: Q01DX009 (ip), vehicle: other
  T/C: 105 % of control

## COc1cc2ccnc(Cc3ccc4c(c3)OCO4)c2cc1OC
[1]
  T/C: 94 % of control
[2]
  T/C: 95 % of control
[3]
  T/C: 95 % of control
[4]
  T/C: 105 % of control
[5]
  T/C: 95 % of control
endpoint: mean survival time, dose: 400.0 mg/kg/injection, schedule: Q04DX003 (ip), vehicle: saline sonified
  T/C: 93 % of control

## CC(C)=C(c1ccccc1)c1c(N)ncnc1Cl
endpoint: mean survival time, dose: 100.0 mg/kg/injection, schedule: Q01DX001 (ip), vehicle: saline
  T/C: 97 % of control
endpoint: mean survival time, dose: 200.0 mg/kg/injection, schedule: Q01DX001 (ip), vehicle: saline
  T/C: 95 % of control
endpoint: mean survival time, dose: 400.0 mg/kg/injection, schedule: Q01DX001 (ip), vehicle: saline
  T/C: 100 % of control

## CCOP(=O)(OCC)C1=C(P(=O)(OCC)OCC)C(F)(F)C1(F)F
endpoint: mean survival time, dose: 9.5 mg/kg/injection, schedule: Q01DX001 (ip), vehicle: other
  T/C: 97 % of control
endpoint: mean survival time, dose: 19.0 mg/kg/injection, schedule: Q01DX001 (ip), vehicle: other
  T/C: 97 % of control
endpoint: mean survival time, dose: 38.0 mg/kg/injection, schedule: Q01DX001 (ip), vehicle: other
  T/C: 91 % of control

## NC(N)=N/N=C(\c1ccc(C(F)(F)F)cc1)c1ccc(Cl)c(Cl)c1
endpoint: mean survival time, dose: 75.0 mg/kg/injection, schedule: Q01DX001 (ip), vehicle: saline
  T/C: 91 % of control

## CC(C)N(CCNc1nc(C(Cl)(Cl)Cl)nc2ccc(Cl)cc12)C(C)C
[6]
  T/C: 103 % of control
[7]
  T/C: 96 % of control
[8]
  T/C: 94 % of control
[9]
  T/C: 96 % of control
[10]
  T/C: 103 % of control
[11]
  T/C: 95 % of control

## O=C(c1ccccc1Cl)n1c2c(c3ccccc31)CCCC2
[7]
  T/C: 110 % of control
[12]
  T/C: 101 % of control
[9]
  T/C: 103 % of control
[13]
  T/C: 95 % of control
[11]
  T/C: 96 % of control
[14]
  T/C: 97 % of control

## CCC(=O)O[C@H]1CC[C@H]2[C@@H]3[C@@H](C)CC4=CC(=O)CC[C@]4(C)[C@H]3CC[C@]12C
[6]
  T/C: 91 % of control
[8]
  T/C: 94 % of control
[10]
  T/C: 94 % of control

## O=c1[nH]cnc2nn(C3OC(CO)C(O)C3O)nc12 (stereo not given)
endpoint: median survival time, dose: 12.5 mg/kg/injection, schedule: Q01DX005 (ip), vehicle: saline
  T/C: 94 % of control
endpoint: median survival time, dose: 25.0 mg/kg/injection, schedule: Q01DX005 (ip), vehicle: saline
  T/C: 94 % of control
endpoint: median survival time, dose: 50.0 mg/kg/injection, schedule: Q01DX005 (ip), vehicle: saline
  T/C: 91 % of control
endpoint: median survival time, dose: 100.0 mg/kg/injection, schedule: Q01DX005 (ip), vehicle: saline
  T/C: 97 % of control and 103 % of control
endpoint: median survival time, dose: 200.0 mg/kg/injection, schedule: Q01DX005 (ip), vehicle: saline
  T/C: 101 % of control and 107 % of control
endpoint: median survival time, dose: 400.0 mg/kg/injection, schedule: Q01DX005 (ip), vehicle: saline
  T/C: 103 % of control

## CCCCC(C(=O)OCC)C1=NC(C)(C)CC(C)O1 (stereo not given)
[1]
  T/C: 98 % of control
endpoint: mean survival time, dose: 100.0 mg/kg/injection, schedule: Q04DX003 (ip), vehicle: acetone
  T/C: 101 % of control
[3]
  T/C: 97 % of control
endpoint: mean survival time, dose: 200.0 mg/kg/injection, schedule: Q04DX003 (ip), vehicle: acetone
  T/C: 90 % of control
[5]
  T/C: 97 % of control
endpoint: mean survival time, dose: 400.0 mg/kg/injection, schedule: Q04DX003 (ip), vehicle: acetone
  T/C: 91 % of control

## Cc1cc(Br)c[nH]c1=O
[6]
  T/C: 104 % of control
[7]
  T/C: 94 % of control
[8]
  T/C: 108 % of control
[9]
  T/C: 100 % of control
[10]
  T/C: 104 % of control

## O=[As](O)(O)c1cccc2ccccc12
endpoint: mean survival time, dose: 1.25 mg/kg/injection, schedule: Q01DX009 (ip), vehicle: saline
  T/C: 90 % of control
endpoint: mean survival time, dose: 2.5 mg/kg/injection, schedule: Q01DX009 (ip), vehicle: saline
  T/C: 111 % of control

## CC(C)NC(=O)OCc1c(COC(=O)NC(C)C)c(-c2ccc(Cl)c(Cl)c2)n2c1CCC2
endpoint: mean survival time, dose: 6.25 mg/kg/injection, schedule: Q01DX009 (ip), vehicle: distilled water + Tween-80
  T/C: 115 % of control
[15]
  T/C: 103 % of control
endpoint: mean survival time, dose: 12.5 mg/kg/injection, schedule: Q01DX009 (ip), vehicle: distilled water + Tween-80
  T/C: 118 % of control
[16]
  T/C: 116 % of control
endpoint: mean survival time, dose: 25.0 mg/kg/injection, schedule: Q01DX009 (ip), vehicle: saline with Tween-80
  T/C: 121 % of control
[7]
  T/C: 89 % of control
endpoint: median survival time, dose: 50.0 mg/kg/injection, schedule: Q01DX005 (ip), vehicle: saline with Tween-80
  T/C: 151 % of control
endpoint: median survival time, dose: 100.0 mg/kg/injection, schedule: Q01DX005 (ip), vehicle: saline with Tween-80
  T/C: 179 % of control
endpoint: median survival time, dose: 200.0 mg/kg/injection, schedule: Q01DX005 (ip), vehicle: saline with Tween-80
  T/C: 190 % of control
endpoint: median survival time, dose: 800.0 mg/kg/injection, schedule: Q01DX005 (ip), vehicle: saline with Tween-80
  T/C: 102 % of control

## O=C(O)C1(Br)CCC1
endpoint: mean survival time, dose: 12.5 mg/kg/injection, schedule: Q01DX005 (ip), vehicle: saline with Tween-80
  T/C: 89 % of control
endpoint: mean survival time, dose: 12.5 mg/kg/injection, schedule: Q01DX009 (ip), vehicle: saline
  T/C: 100 % of control
endpoint: mean survival time, dose: 25.0 mg/kg/injection, schedule: Q01DX005 (ip), vehicle: saline with Tween-80
  T/C: 101 % of control
endpoint: mean survival time, dose: 25.0 mg/kg/injection, schedule: Q01DX009 (ip), vehicle: saline
  T/C: 89 % of control
endpoint: mean survival time, dose: 50.0 mg/kg/injection, schedule: Q01DX005 (ip), vehicle: saline with Tween-80
  T/C: 108 % of control
endpoint: mean survival time, dose: 50.0 mg/kg/injection, schedule: Q01DX009 (ip), vehicle: saline
  T/C: 93 % of control
endpoint: mean survival time, dose: 50.0 mg/kg/injection, schedule: Q04DX002 (ip), vehicle: saline with Tween-80
  T/C: 97 % of control
endpoint: mean survival time, dose: 100.0 mg/kg/injection, schedule: Q01DX005 (ip), vehicle: saline with Tween-80
  T/C: 97 % of control
[1]
  T/C: 89 % of control
[17]
  T/C: 94 % of control

## O=C(O)C1Cc2c([nH]c3ccccc23)C2CCC(=O)N12 (stereo not given)
[17]
  T/C: 100 % of control
endpoint: mean survival time, dose: 200.0 mg/kg/injection, schedule: Q04DX002 (ip), vehicle: saline with Tween-80
  T/C: 108 % of control
endpoint: mean survival time, dose: 400.0 mg/kg/injection, schedule: Q04DX002 (ip), vehicle: saline with Tween-80
  T/C: 100 % of control

## Cc1ccc(-c2cc(O)cc(-c3ccc(C)cc3C)c2O)c(C)c1
[10]
  T/C: 91 % of control

## O=C(CC(=O)Oc1ccc(Cl)cc1Cl)Oc1ccc(Cl)cc1Cl
[12]
  T/C: 97 % of control
[13]
  T/C: 101 % of control
[14]
  T/C: 95 % of control

## N#CCCc1ccccc1
endpoint: mean survival time, dose: 3.13 mg/kg/injection, schedule: Q01DX009 (ip), vehicle: saline with Tween-80
  T/C: 97 % of control
endpoint: mean survival time, dose: 3.13 mg/kg/injection, schedule: Q04DX003 (ip), vehicle: saline
  T/C: 92 % of control
[15]
  T/C: 94 % of control
endpoint: mean survival time, dose: 6.25 mg/kg/injection, schedule: Q04DX003 (ip), vehicle: saline
  T/C: 89 % of control
[16]
  T/C: 94 % of control
endpoint: mean survival time, dose: 12.5 mg/kg/injection, schedule: Q04DX003 (ip), vehicle: saline with Tween-80
  T/C: 106 % of control
endpoint: mean survival time, dose: 12.5 mg/kg/injection, schedule: Q04DX003 (ip), vehicle: saline
  T/C: 92 % of control
endpoint: mean survival time, dose: 25.0 mg/kg/injection, schedule: Q04DX003 (ip), vehicle: saline with Tween-80
  T/C: 123 % of control
endpoint: mean survival time, dose: 50.0 mg/kg/injection, schedule: Q04DX003 (ip), vehicle: saline with Tween-80
  T/C: 92 % of control

## NC(CSS(=O)(=O)O)=NCCSS(=O)(=O)O
endpoint: mean survival time, dose: 100.0 mg/kg/injection, schedule: Q04DX003 (ip), vehicle: saline
  T/C: 97 % of control
endpoint: mean survival time, dose: 200.0 mg/kg/injection, schedule: Q04DX003 (ip), vehicle: saline
  T/C: 97 % of control

## O=C(CNC(=O)Nc1cccc([N+](=O)[O-])c1)N/N=C/c1cccc(O)c1
endpoint: mean survival time, dose: 50.0 mg/kg/injection, schedule: Q01DX009 (ip), vehicle: saline with Tween-80
  T/C: 92 % of control
[7]
  T/C: 95 % of control
[9]
  T/C: 95 % of control

## C=CCSc1nc(N)nc2nc[nH]c12
[2]
  T/C: 107 % of control
[4]
  T/C: 96 % of control
